The source of these data is patent US11242335B2, “Fluorine-substituted indazole compounds and uses thereof” (SUNSHINE LAKE PHARMA CO., LTD., priority 2017, dated 2022).

SMILES strings stand for the structures.

A short description of data set [1]: Pharmacokinetics in male SD rats after intravenous and oral administration. It counts as in vivo. As to the method:
Preparation of test compound solution: The test compound was formulated with 5% dimethylsulfoxide, 5% Solutol HS 15 and 90% physiological saline to give solution, which was used for oral and intravenous administration.
Male SD rats weighing 190-250 g were randomly divided into two groups, each group had three members; one group received test compound at a dose of 1.0 mg/kg by intravenous injection, the other group received test compound at a dose of 2.5 or 5.0 mg/kg by oral. After dosing, blood samples were collected at time points of 0.0833, 0.25, 0.5, 1.0, 2.0, 4.0, 7.0 and 24 h. Standard curve was plotted based on concentrations of the samples in a suitable range, the concentrations of test compounds in plasma samples were determined by using AB SCIEX API4000 LC-MS/MS in MRM mode. Pharmacokinetic parameters were calculated according to drug concentration-time curve using a noncompartmental method by WinNonLin 6.3 software.

The target in data set [2] is T1, hERG potassium channel (Homo sapiens, UniProt Q12809).
T1 construct: expressed in transfected cells; host or cells: HEK293
The data set can be described thus: Inhibition of hERG potassium channel, manual patch clamp in HEK293 cells. It counts as cell-based. The settings on record: hERG tail current; HEK293 cells overexpressing hERG; whole cell patch clamp; 22-24° C. As to the method: Each compound was weighed and dissolved in DMSO and diluted with DMSO to a serial solution (30, 10, 3.3, 1.1, 0.37 mM). The above serial solutions were diluted to 1000-fold with the extracellular fluid to prepare test solutions (final concentration was 30, 10, 3.3, 1.1, 0.37 μM respectively).
The HEK293 cells that overexpressed the hERG potassium channel were cultured in a 37° C., 5% CO2 incubator, and the culture medium contained DMEM, 15% fetal bovine serum, and 1% penicillin-streptomycin. When the cell density reached 80% of the culture plate, the cells were digested with trypsin/EDTA and transferred to a centrifuge tube, centrifuged at 1000 rpm for 3 minutes, then supernatant was discarded, and the cell culture medium was added. The cells were mixed uniformly by gently blowing and beating. […]
The whole cell recording mode was used to record the channel current in the experiment. Firstly, the extracellular fluid was perfused (approximately 2 mL per minute) and the data were continuous recorded, and the current was kept steady (the current decay was less than 5% in 5 minutes). […] The extracellular fluid containing the test compound was then perfused and the data were continuous recorded until the compound's inhibitory effect on the hERG current reached a steady state, at this time point the peak value of tail current was the current value after dosing. […]
Background: The hERG channel carries a current that helps repolarise heart muscle cells.

T1 sequence (Q12809 whole entry): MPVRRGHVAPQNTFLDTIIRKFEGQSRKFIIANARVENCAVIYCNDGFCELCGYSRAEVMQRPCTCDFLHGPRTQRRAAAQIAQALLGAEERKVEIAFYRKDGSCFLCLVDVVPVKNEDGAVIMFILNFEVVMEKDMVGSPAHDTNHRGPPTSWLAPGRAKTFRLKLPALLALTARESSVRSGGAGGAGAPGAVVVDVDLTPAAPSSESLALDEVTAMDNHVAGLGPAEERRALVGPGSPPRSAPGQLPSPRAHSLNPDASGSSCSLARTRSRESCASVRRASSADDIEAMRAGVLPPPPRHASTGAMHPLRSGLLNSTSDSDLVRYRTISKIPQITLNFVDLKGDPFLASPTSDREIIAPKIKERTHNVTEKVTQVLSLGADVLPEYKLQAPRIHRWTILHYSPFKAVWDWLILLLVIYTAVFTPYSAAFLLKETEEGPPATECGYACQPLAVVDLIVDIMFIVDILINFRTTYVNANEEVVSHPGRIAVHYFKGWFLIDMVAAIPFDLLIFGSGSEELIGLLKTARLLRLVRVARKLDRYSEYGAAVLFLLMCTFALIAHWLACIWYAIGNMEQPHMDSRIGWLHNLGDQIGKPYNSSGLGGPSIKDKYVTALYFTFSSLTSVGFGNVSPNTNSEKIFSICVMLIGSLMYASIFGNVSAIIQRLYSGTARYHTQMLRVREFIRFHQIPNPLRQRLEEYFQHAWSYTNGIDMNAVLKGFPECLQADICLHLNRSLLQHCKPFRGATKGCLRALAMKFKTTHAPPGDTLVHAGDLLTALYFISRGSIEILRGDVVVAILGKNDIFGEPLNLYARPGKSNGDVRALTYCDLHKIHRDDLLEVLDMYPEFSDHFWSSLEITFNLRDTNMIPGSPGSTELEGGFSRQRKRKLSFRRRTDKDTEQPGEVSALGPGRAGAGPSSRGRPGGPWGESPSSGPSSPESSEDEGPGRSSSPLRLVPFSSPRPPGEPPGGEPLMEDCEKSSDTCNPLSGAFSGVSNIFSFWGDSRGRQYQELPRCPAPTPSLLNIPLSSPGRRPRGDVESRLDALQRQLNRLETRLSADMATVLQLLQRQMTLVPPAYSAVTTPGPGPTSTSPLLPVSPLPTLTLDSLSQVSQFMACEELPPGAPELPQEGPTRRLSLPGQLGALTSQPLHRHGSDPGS

For `COC(=O)Nc1c(N)nc(-c2nn(Cc3ccccc3F)c3c(F)cccc23)nc1N` [Example 10, methyl (4,6-diamino-2-(7-fluoro-1-(2-fluorobenzyl)-1H-indazol-3-yl)pyrimidin-5-yl)carbamate], the F in data set [1] (po 5 mg/kg versus iv 1 mg/kg) was found to be 99.6%. Besides, in data set [1] (rat, plasma, iv, 1 mg/kg), the AUC(0-t) is 7520 ng·h/mL, the concentration peaked (Cmax) at 1500 ng/mL, the Tmax was determined as 0.083 h and the clearance was found to be 2.21 mL/min/kg. The same compound showed a half-life in data set [1] (rat, plasma, iv, 1 mg/kg) of 3.54 h. In addition, in data set [1] (rat, plasma, iv, 1 mg/kg, read-out: Vss), the Vd was found to be 0.63 L/kg. In data set [1] (rat, plasma, po, 5 mg/kg), the AUC(0-t) turned out to be 37500 ng·h/mL, the Cmax stood at 3070 ng/mL, the Tmax turned out to be 2 h and the half-life was 4.34 h. For the same compound, the midpoint of inhibition in data set [2], the IC50, lay at 19.9 µM.

By AUC(0-t) is commonly meant exposure summed from dosing to a finite time, without extrapolation to infinity. A higher AUC(0-t) goes with more exposure. As usually defined, the Cmax is the highest concentration seen after dosing. A word on the Tmax: it is the time at which the peak concentration occurs. Usually half-life stands for how long it takes for the measured level to halve. Broadly, the IC50 is the concentration that gives 50% inhibition.
